Results from patent US20250024871A1, “AMIDE COMPOUNDS AND THEIR USE AS FLAVOR MODIFIERS” (Firmenich Incorporated, priority 2021, published 2025).

Target: T1, T1R umami taste receptor (Homo sapiens, UniProt Q7RTX0+Q7RTX1)
T1 sequence (Q7RTX1 21-841): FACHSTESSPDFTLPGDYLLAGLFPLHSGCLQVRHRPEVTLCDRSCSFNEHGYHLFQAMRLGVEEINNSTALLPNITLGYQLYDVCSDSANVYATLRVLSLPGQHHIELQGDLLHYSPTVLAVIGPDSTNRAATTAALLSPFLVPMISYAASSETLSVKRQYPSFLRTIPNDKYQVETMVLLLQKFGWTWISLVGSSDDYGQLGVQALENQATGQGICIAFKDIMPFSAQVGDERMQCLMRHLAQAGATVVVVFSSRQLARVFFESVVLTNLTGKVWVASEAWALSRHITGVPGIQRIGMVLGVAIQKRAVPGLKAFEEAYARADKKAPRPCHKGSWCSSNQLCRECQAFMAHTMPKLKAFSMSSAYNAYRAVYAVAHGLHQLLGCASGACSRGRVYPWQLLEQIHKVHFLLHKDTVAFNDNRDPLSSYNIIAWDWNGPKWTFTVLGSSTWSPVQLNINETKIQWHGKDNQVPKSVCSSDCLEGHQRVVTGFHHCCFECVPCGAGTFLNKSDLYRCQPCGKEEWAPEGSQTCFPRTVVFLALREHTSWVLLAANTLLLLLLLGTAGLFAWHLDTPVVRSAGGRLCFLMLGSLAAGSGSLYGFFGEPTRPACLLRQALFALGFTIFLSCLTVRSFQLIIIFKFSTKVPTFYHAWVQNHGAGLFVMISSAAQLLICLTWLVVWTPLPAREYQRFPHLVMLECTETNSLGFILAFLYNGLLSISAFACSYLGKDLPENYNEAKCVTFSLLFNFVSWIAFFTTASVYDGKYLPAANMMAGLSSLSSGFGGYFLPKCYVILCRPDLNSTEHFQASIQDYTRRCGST
T1 sequence (Q7RTX0 21-852): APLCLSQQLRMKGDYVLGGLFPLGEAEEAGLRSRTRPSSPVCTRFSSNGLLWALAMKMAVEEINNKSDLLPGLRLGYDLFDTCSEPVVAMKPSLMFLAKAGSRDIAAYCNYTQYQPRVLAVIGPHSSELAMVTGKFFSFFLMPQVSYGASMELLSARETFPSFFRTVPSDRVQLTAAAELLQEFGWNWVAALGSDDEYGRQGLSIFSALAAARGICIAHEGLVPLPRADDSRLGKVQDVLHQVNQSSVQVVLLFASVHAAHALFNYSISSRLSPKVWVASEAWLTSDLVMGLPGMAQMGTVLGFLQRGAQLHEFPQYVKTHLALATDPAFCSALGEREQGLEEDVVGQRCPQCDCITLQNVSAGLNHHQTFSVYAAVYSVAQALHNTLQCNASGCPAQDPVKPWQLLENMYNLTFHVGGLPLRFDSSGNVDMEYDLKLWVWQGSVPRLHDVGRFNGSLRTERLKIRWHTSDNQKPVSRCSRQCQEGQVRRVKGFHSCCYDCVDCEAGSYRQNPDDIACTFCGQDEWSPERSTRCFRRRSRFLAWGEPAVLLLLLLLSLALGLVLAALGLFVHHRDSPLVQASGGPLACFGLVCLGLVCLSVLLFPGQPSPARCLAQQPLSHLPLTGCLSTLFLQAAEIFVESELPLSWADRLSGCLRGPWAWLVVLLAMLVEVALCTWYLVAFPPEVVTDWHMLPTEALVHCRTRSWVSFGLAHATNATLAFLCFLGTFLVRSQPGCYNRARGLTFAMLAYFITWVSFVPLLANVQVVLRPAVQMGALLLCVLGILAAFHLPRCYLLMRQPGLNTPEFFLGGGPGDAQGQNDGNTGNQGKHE
Assay: in vitro cell-based assay having cells that express the T1R umami taste receptor (enhancement of MSG)
Conditions: for EC50: cells expressing T1R umami taste receptor, read-out: EC50 for enhancement of MSG binding
Description: Each of Compounds 101-183 was synthesized according to one of the general procedures set forth above in Examples 1. Thereafter, the compounds were tested in an in vitro cell-based assay having cells that express the T1R umami taste receptor. Dose-binding curves were recorded and the EC50 was determined for enhancement of MSG binding. Table 2 sets forth the calculated EC50 values for certain tested compounds as well as the MSG enhancement ratio at a particular concentration.

SMILES | EC50 | MSG Enh. Ratio (compound at 50 μM) | other results
CCOC(=O)CC[C@H](NC(=O)/C=C/c1ccccc1)C(=O)OCC [Compound 140, Diethyl cinnamoyl-L-glutamate] | 12 µM |  | MSG Enh. Ratio (compound at 10 μM): 5.6 @
CCOC(=O)[C@H](Cc1ccccc1)NC(=O)/C=C/c1ccccc1 [Compound 141, Ethyl cinnamoyl-L-phenylalaninate] |  |  | MSG Enh. Ratio (compound at 10 μM): 5.5 @
COC(=O)[C@H](C)NC(=O)/C=C/c1ccc(OC)cc1 [Compound 142, Methyl (E)-(3-(4-methoxyphenyl)acryloyl)-L-alaninate] | > 50 µM | 3.3 @ | 
CCOC(=O)[C@@H](NC(=O)/C=C/c1ccccc1OC)C(C)C [Compound 143, Ethyl (E)-(3-(2-methoxyphenyl)acryloyl)-L-valinate] | 15 µM |  | MSG Enh. Ratio (compound at 10 μM): 4.4 @
COC(=O)[C@H](Cc1ccccc1)NC(=O)/C=C/c1ccc(OC)cc1 [Compound 146, Methyl (E)-(3-(4-methoxyphenyl)acryloyl)-L-phenylalaninate] | 1 µM |  | MSG Enh. Ratio (compound at 0.3 μM): 6.4 @
CCOC(=O)[C@@H](NC(=O)/C=C/c1ccc(OC)cc1)C(C)C [Compound 147, Ethyl (E)-(3-(4-methoxyphenyl)acryloyl)-L-valinate] | 2.24 µM |  | MSG Enh. Ratio (compound at 0.3 μM): 3.0 @
CCOC(=O)[C@H](Cc1ccccc1)NC(=O)/C=C/c1ccc(OC)cc1 [Compound 148, Ethyl (E)-(3-(4-methoxyphenyl)acryloyl)-L-phenylalaninate] | 10.1 µM |  | MSG Enh. Ratio (compound at 1 μM): 3.5 @
COC(=O)[C@H](CC(C)C)NC(=O)/C=C/c1ccc(OC)cc1 [Compound 149, Methyl (E)-(3-(4-methoxyphenyl)acryloyl)-L-leucinate] | 11 µM |  | MSG Enh. Ratio (compound at 3 μM): 4.5 @
CCOC(=O)[C@@H](NC(=O)/C=C/c1ccc(OCC)cc1)C(C)C [Compound 153, Ethyl (E)-(3-(4-ethoxyphenyl)acryloyl)-L-valinate] | 1 µM |  | MSG Enh. Ratio (compound at 0.3 μM): 7.4 @
CCOC(=O)CC[C@H](NC(=O)/C=C/c1ccc(OCC)cc1)C(=O)OCC [Compound 156, Diethyl (E)-(3-(4-ethoxyphenyl)acryloyl)-L-glutamate] | 4 µM |  | 
COC(=O)[C@H](Cc1ccccc1)NC(=O)/C=C/c1cc(OC)ccc1OC [Compound 157, Methyl (E)-(3-(2,5-dimethoxyphenyl)acryloyl)-L-phenylalaninate] | > 50 µM | 3.1 @ | 
CCOC(=O)[C@H](Cc1ccccc1)NC(=O)/C=C/c1ccc(OC)c(OC)c1 [Compound 158, Ethyl (E)-(3-(3,4-dimethoxyphenyl)acryloyl)-L-phenylalaninate] |  |  | MSG Enh. Ratio (compound at 10 μM): 4.8 @
CCOC(=O)[C@H](Cc1ccccc1)NC(=O)/C=C/c1ccc2c(c1)OCO2 [Compound 160, Ethyl (E)-(3-(benzo[d][1,3]dioxol-5-yl)acryloyl)-L-phenylalaninate] | > 50 µM | 3.9 @ | 
CCOC(=O)CC[C@H](NC(=O)/C=C/c1ccc2c(c1)OCO2)C(=O)OCC [Compound 161, Diethyl (E)-(3-(benzo[d][1,3]dioxol-5-yl)acryloyl)-L-glutamate] | > 20 µM |  | MSG Enh. Ratio (compound at 10 μM): 2.9 @
C=C(C)C1CC=C(C(=O)N[C@@H](Cc2ccccc2)C(=O)OC)CC1 (stereo partly drawn) [Compound 166, Methyl (4-(prop-1-en-2-yl)cyclohex-1-ene-1-carbonyl)-L-phenylalaninate] | > 50 µM | 4.6 @ | 
C/C=C/C(=O)N[C@@H](Cc1ccccc1)C(=O)OC [Compound 167, Methyl (E)-but-2-enoyl-L-phenylalaninate] | > 50 µM | 2.1 @ | 
CCOC(=O)[C@H](CC(C)C)NC(=O)/C=C/C(C)C [Compound 169, Ethyl (E)-(4-methylpent-2-enoyl)-L-leucinate] | 12.9 µM |  | MSG Enh. Ratio (compound at 3 μM): 4.2 @
CCOC(=O)[C@H](CCSC)NC(=O)/C=C/C(C)C [Compound 170, Ethyl (E)-(4-methylpent-2-enoyl)-L-methioninate] |  |  | MSG Enh. Ratio (compound at 10 μM): 3.5 @
CCOC(=O)[C@@H](CC(C)C)NC(=O)/C=C/C(C)C [Compound 171, Ethyl (E)-(4-methylpent-2-enoyl)-D-leucinate] | 3.34 µM |  | MSG Enh. Ratio (compound at 3 μM): 8.96 @
CCOC(=O)[C@H](Cc1ccccc1)NC(=O)/C=C/C(C)C [Compound 172, Ethyl (E)-(4-methylpent-2-enoyl)-L-phenylalaninate] |  |  | MSG Enh. Ratio (compound at 10 μM): 3.6 @

Further lines, with some results ahead:

EC50 | MSG Enh. Ratio (compound at 50 μM) | SMILES | other results
> 50 µM | 2.0 @ | CCOC(=O)C[C@H](NC(=O)/C=C/c1ccccc1)C(=O)OCC [Compound 138, Diethyl cinnamoyl-L-aspartate] | 
 | 3.82 @ | COC(=O)CC[C@H](NC(=O)/C=C/c1ccccc1)C(=O)OC [Compound 139, Dimethyl cinnamoyl-L-glutamate] | 
0.1 µM |  | COC(=O)[C@@H](CC(C)C)NC(=O)/C=C/c1ccc(OC)cc1 [Compound 144, Methyl (E)-(3-(4-methoxyphenyl)acryloyl)-D-leucinate] | 
1 µM |  | CCOC(=O)[C@H](NC(=O)/C=C/c1ccc(OC)cc1)C(C)C [Compound 145, Ethyl (E)-(3-(4-methoxyphenyl)acryloyl)-D-valinate] | 
1 µM |  | CCOC(=O)[C@@H](CC(C)C)NC(=O)/C=C/c1ccc(OC)cc1 [Compound 150, Ethyl (E)-(3-(4-methoxyphenyl)acryloyl)-D-leucinate] | 
2 µM |  | CCOC(=O)CC[C@H](NC(=O)/C=C/c1ccc(OC)cc1)C(=O)OCC [Compound 151, Diethyl (E)-(3-(4-methoxyphenyl)acryloyl)-L-glutamate] | MSG Enh. Ratio (compound at 3 μM): 4.2 @
27 µM |  | COC(=O)[C@H](Cc1ccccc1)NC(=O)/C=C/c1ccccc1OC [Compound 152, Methyl (E)-(3-(2-methoxyphenyl)acryloyl)-L-phenylalaninate] | MSG Enh. Ratio (compound at 10 μM): 2.8 @
3 µM |  | CCOC(=O)[C@H](Cc1ccccc1)NC(=O)/C=C/c1ccc(OCC)cc1 [Compound 154, Ethyl (E)-(3-(4-ethoxyphenyl)acryloyl)-L-phenylalaninate] | MSG Enh. Ratio (compound at 3 μM): 2.0 @
1 µM |  | CCOc1ccc(/C=C/C(=O)N[C@@H](Cc2ccccc2)C(=O)OC)cc1 [Compound 155, Methyl (E)-(3-(4-ethoxyphenyl)acryloyl)-L-phenylalaninate] | MSG Enh. Ratio (compound at 0.3 μM): 8.1 @
> 50 µM | 5.8 @ | CCOC(=O)[C@@H](NC(=O)/C=C/c1ccc2c(c1)OCO2)C(C)C [Compound 159, Ethyl (E)-(3-(benzo[d][1,3]dioxol-5-yl)acryloyl)-L-valinate] | 
> 50 µM | 3.4 @ | CCOC(=O)[C@H](CC(C)C)NC(=O)/C=C/c1ccc2c(c1)OCO2 [Compound 162, Ethyl (E)-(3-(benzo[d][1,3]dioxol-5-yl)acryloyl)-L-leucinate] | 
> 50 µM | 2.4 @ | CCOC(=O)[C@@H](NC(=O)/C=C/c1ccc2c(c1)OCO2)[C@@H](C)CC [Compound 163, Ethyl ((E)-3-(benzo[d][1,3]dioxol-5-yl)acryloyl)-L-isoleucinate] | 
> 50 µM | 4.2 @ | CCOC(=O)CC[C@H](NC(=O)/C=C/c1ccc(O)cc1)C(=O)OCC [Compound 164, Diethyl (E)-(3-(4-hydroxyphenyl)acryloyl)-L-glutamate] | 
